Results published in PMC6155426, “Metabolite Profiling of Eastern Teaberry (Gaultheria procumbens L.) Lipophilic Leaf Extracts with Hyaluronidase and Lipoxygenase Inhibitory Activity” (Molecules : A Journal of Synthetic Chemistry and Natural …, 2017).
Like-named read-outs stand apart in the source and are kept apart here.

Tests used:
[1] = target: T1, lipoxygenase from soybean (Glycine max, UniProt P08170); test: Lipoxygenase inhibition test (spectrophotometric, 96-well); format: biochemical
T1 construct: purchased Sigma-Aldrich; host or cells: soybean (plant-derived preparation)
T1 sequence (P08170 1-839): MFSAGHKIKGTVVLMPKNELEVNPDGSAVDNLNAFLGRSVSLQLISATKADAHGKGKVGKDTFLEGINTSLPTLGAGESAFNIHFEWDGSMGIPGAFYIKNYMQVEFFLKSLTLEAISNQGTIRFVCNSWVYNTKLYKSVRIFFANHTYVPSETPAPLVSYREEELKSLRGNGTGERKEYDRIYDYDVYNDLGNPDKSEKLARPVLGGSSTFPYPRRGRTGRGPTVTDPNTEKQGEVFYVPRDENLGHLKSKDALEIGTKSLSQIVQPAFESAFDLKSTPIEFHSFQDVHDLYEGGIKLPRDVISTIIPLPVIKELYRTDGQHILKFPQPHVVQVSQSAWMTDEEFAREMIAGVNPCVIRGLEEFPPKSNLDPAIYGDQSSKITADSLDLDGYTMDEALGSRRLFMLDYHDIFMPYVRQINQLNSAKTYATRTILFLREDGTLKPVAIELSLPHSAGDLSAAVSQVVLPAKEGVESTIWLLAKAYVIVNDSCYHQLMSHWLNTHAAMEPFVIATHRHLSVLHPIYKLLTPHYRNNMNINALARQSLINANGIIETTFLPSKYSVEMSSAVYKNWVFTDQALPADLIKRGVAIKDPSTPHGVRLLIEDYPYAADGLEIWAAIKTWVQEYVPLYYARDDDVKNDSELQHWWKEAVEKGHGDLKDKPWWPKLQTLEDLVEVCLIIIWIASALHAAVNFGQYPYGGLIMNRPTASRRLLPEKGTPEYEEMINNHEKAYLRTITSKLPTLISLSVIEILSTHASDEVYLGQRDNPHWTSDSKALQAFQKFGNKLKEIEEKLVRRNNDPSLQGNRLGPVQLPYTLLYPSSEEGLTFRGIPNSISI
Description: (§1) Heparin sodium salt was purchased from WZF Polfa (Warsaw, Poland). HPLC grade solvents (methanol and orthophosphoric acid) were from Avantor Performance Materials (Avantor PM, Gliwice, Poland). All other chemicals and solvents were of analytical grade and supplied by Avantor PM. In all analyses redistilled water was used. Enzymatic tests were done using 96-well plates and monitored using a Synergy 4 microplate reader (BioTek, Winooski, VT, USA). Column chromatography (CC) was performed on silica gel 60 G (0.2–0.5 mm, Macherey-Nagel, Düren, Germany). Analytical TLC was carried out on silica gel 60 G precoated plates (Merck, Warsaw, Poland) using horizontal DC chambers (Chromdes, Lublin, Poland). Flash chromatography was carried out on an Interchim puriFlash^TM 430evo chromatograph (Interchim Inc., San Pedro, CA, USA) equipped with a UV-Vis detector scanning in the wavelength range of 200–600 nm, a fraction collector, and Interchim puriFlash Silica HC (50 µm, 72 mm × 15 mm, 4 g) preparative columns. The flow rate was 7 mL/min. The mobile phase consisted of petroleum ether (A), chloroform (B), and methanol (C). A linear gradient system was used for elution (A:B:C): 0–9 min, 75:25:0 (v/v/v); 9–10 min, 49:49:2; 10–15 min, 45:45:10. Before injection, samples were dissolved in chloroform. Melting points (uncorrected) were determined on a Boetius apparatus (Carl Zeiss, Jena, Germany). UV-Vis spectra, before and after adding ionization and complexation reagents, were recorded at 25 °C on a UV-1601 Spectrophotometer (Rayleigh, Beijing, China) in methanol, according to Mabry et al.. ESI-MS spectra were measured on a UHPLC-3000 RS chromatograph (Dionex, Dreieich, Germany) equipped with a dual low-pressure gradient pump, an autosampler, a diode array detector, and an AmaZon SL ion trap mass spectrometer with an ESI interface (Bruker Daltonik, Bremen, Germany). IR spectra were recorded in KBr on a Bruker Alpha FT-IR spectrometer (Bruker Daltonik). Optical rotation ( [α]D20 ) was measured in chloroform on a PolAAr 3001 polarimeter (Optical Activity, Ramsey, UK). ^1H-NMR, ^13C-NMR, ^1H-^1H COSY, HMQC, and HMBC spectra were recorded at 25 °C on a Bruker Daltonik III 600 MHz spectrometer in CDCl3 and with TMS as the internal standard.
Inhibitory activity of the tested analytes (extracts and individual compounds) was determined by a spectrophotometric method adjusted to a 96-well microtiter plates according to Granica et al.. The protocol was started by adding 50 μL of the tested analyte solution in sodium borate buffer (pH = 9.0), then 50 μL of linoleic acid solution (134 μM) was added, followed by 50 μL of lipoxygenase solution (167 U/mL) in sodium borate buffer (pH = 9.0). The reaction mixture was vigorously shaken and changes in absorbance were measured at 234 nm over a period of 15 min with 1 min intervals. […] At each level three independent experiments were carried out in duplicate. Indomethacin was used as a positive control. Activity of the tested analytes was calculated as inhibition percentage (% Inhibition) of lipoxygenase according to Equation (2): (2) % Inhibition=100×(1−(AAN−ALA/ALOX)), where AAN—absorbance of solution with the tested analyte, ALA—absorbance of solution without the enzyme, ALOX—absorbance of solution without the tested analyte (negative control). The absorbance value in the 10th minute of the reaction were used for the calculation.

[2] = target: T2, bovine testis hyaluronidase (Bos taurus, UniProt Q2YDK3); test: Hyaluronidase inhibition test (turbidimetric, 96-well); format: biochemical; conditions: for IC50: read-out: HYAL inhibitory activity (IC50) (converted)
T2 construct: purchased Sigma-Aldrich; host or cells: bovine testis (tissue-derived preparation)
T2 sequence (Q2YDK3 36-553): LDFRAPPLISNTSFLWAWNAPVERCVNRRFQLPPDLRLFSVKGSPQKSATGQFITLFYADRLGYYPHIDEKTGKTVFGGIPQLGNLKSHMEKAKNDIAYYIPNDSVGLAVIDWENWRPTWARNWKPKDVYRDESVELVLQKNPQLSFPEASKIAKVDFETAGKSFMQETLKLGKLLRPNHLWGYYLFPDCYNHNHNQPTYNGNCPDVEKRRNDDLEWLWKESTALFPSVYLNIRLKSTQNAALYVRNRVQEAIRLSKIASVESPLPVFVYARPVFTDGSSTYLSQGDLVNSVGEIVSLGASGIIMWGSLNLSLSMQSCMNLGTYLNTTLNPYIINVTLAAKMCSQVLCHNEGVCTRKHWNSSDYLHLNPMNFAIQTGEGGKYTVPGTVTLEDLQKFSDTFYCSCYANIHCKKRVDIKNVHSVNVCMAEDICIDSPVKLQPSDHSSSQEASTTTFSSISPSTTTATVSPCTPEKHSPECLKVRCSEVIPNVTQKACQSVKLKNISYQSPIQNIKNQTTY
Description: as §1
Inhibitory activity of the tested analytes (extracts and individual compounds) was determined by turbidimetric method adapted for 96-well microtiter plates as described previously. The protocol was started by adding 20 μL of the tested analyte solution in monosodium phosphate buffer (pH = 7.0) to 40 μL of hyaluronidase solution (22.55 U/mL) in monosodium phosphate buffer (pH = 7.0) and the mixture was incubated at 37.0 ± 0.1 °C in the dark for 10 min. After this time 40 μL of hyaluronic acid solution (0.03%, w/v) in monosodium phosphate buffer (pH = 5.35) was added and the mixture was further incubated at 37.0 ± 0.1 °C in the dark for 45 min. Finally 300 μL of bovine serum albumin solution (0.1%, w/v) in sodium acetate buffer (pH = 3.75) was added to the mixture and incubated in room temperature for 10 min. Changes in turbidity were measured at 600 nm. […] At each level three independent experiments were carried out in duplicate. Heparin was used as a positive control. Activity of the tested analytes was calculated as inhibition percentage (% Inhibition) of hyaluronidase according to the Equation (1): (1) % Inhibition=100×(1−(AHA−AAN/AHA−AHYAL)), where AHA—absorbance of solution without the enzyme, AHYAL—absorbance of solution without the tested analyte (negative control), AAN—absorbance of solution with the tested analyte.

[3] = tested 100−1000 μg/mL, hyaluronic acid substrate, 37 °C, mean ± SD (n = 3 × 2)
[4] = tested 50−1000 μg/mL, linoleic acid substrate, pH 9.0, mean ± SD (n = 3 × 2), read-out: LOX inhibitory activity (IC50) (converted)

Molecule | IC50 [2, 3] [mM] | IC50 [1, 4] [mM] | inhibitory activity towards hyaluronidase in the tested concentration range ([2]; tested concentration range 100−1000 μg/mL) | HYAL inhibitory activity (IC50) [2, 3] [µg/mL] | IC50 [1] [mM]
COC(=O)c1ccccc1 [BM, methyl benzoate] | 5.7 | – | – | – | 2.75
COc1cc2oc(-c3ccc(O)cc3)c(OC)c(=O)c2c(O)c1C [DL, 4′,5-dihydroxy-3,7-dimethoxy-6-methylflavone] | 1.32 | 0.92 | – | – | –
CCCCCCCCCCCCCCCCCCCCCC [DOC, docosane] | > 3.22 | 2.64 | no inhibitory activity | – | –
CC1(C)CC[C@]2(C(=O)O)CC[C@]3(C)C(=CC[C@@H]4[C@@]5(C)CC[C@H](O)C(C)(C)[C@@H]5CC[C@]43C)[C@@H]2C1 [OA, oleanolic acid] | – | – | – | – | 2.02
C[C@H]1[C@H](C)CC[C@]2(C(=O)O)CC[C@]3(C)C(=CC[C@@H]4[C@@]5(C)CC[C@H](O)C(C)(C)[C@@H]5CC[C@]43C)[C@H]12 [UA, ursolic acid] | 0.832 | – | – | – | 1.61
CC[C@H](CC[C@@H](C)[C@H]1CC[C@H]2[C@@H]3CC=C4C[C@@H](O)CC[C@]4(C)[C@H]3CC[C@]12C)C(C)C [β-SIT, β-sitosterol] | 1.65 | 1.91 | – | – | –

Continued, in another order:

IC50 [2, 3] [mM] | IC50 [1, 4] [mM] | inhibitory activity towards hyaluronidase in the tested concentration range ([2]; tested concentration range 100−1000 μg/mL) | HYAL inhibitory activity (IC50) [2, 3] [µg/mL] | Molecule | IC50 [1] [mM]
1.57 | 1.12 | – | – | COc1cc2oc(-c3ccc(O)cc3)cc(=O)c2c(O)c1C [DS, 4′,5-dihydroxy-7-methoxy-6-methylflavone] | –
– | 0.259 | – | – | COc1ccc2c(c1)c(CC(=O)O)c(C)n2C(=O)c1ccc(Cl)cc1 [IND, indomethacin, reference compound] | –
5.22 | 2.57 | – | – | COC(=O)c1ccccc1O [SM, methyl salicylate] | –
1.59 | 0.54 | – | – | CC1=CC(=O)CC(C)(C)C1(O)C=CC(C)O [VO, (6S,9R)-6-hydroxy-3-oxo-α-ionol] | –
– | – | – | 366.24 ± 14.72 | heparin [HP, reference compound] | –
